Measured values as given in patent US11590108B2, “Pharmaceutical compositions for combination therapy” (Genfit, priority 2017, dated 2023).
Read-outs that look alike come from different tables or passages of the source.

Legend:
[1] = cited from earlier work
NASH with liver fibrosis = conditions: cited from earlier work
TGFβ1-induced hHSC = test: α-SMA ELISA in TGFβ1-activated human primary hepatic stellate cells (in vitro model of hepatic fibrogenesis); assay type: cell-based
Procedure: Serum-deprived HSC were preincubated for 1 hour with Elafibranor (A), Cenicriviroc (B), or Bezafibrate (PPAR pan α/γ/δ) before the activation with the profibrogenic cytokine TGFβ1 (1 ng/ml).
After 48 hours of incubation, the expression of α-SMA was measured by ELISA.
The obtained values were transformed into percentage inhibition over TGFβ1 control. Data are presented as mean (quadruplicates)±standard deviation (SD). Statistical analyses were performed by one-way ANOVA followed by Bonferroni post-hoc tests, using Sigma Plot 11.0 software. [*: p<0.05; **: p<0.01; ***: p<0.001 (comparison versus TGFβ1 1 ng/mL group)]. The curve fitting and the calculation of half maximal inhibitory concentration (IC50) were performed with XLFit software 5.3.1.3.
The human primary hepatic stellate cells (hHSC; Innoprot) were cultured in STeCM medium (ScienCell cat #5301) that was supplemented with 2% fetal bovine serum (FBS, ScienCell cat #0010), 1% penicillin/streptomycin (ScienCell cat #0503) and stellate cell growth supplement (SteCGS; ScienCell cat #5352). Cell-culture flasks were coated with Poly-L Lysine (Sigma cat #P4707) for a better adherence.
For these experiments, a checkerboard matrix was generated. […]
The level of α-SMA was measured using a Sandwich ELISA. […]

CDFF-fed mice = test: Chronic CDFF diet fibrosing NASH mouse model (8 weeks); assay type: in vivo, C57Bl/6J mice; conditions: Elafibranor 3 mg/kg/day, CVC 10 mg/kg/day or both
Procedure: The preventive effects of Elafibranor alone, CVC alone and their combination were assessed in a fibrosing NASH model of mice fed a CDAA+2% cholesterol+30% Milk fat diet and High Fructose Corn Syrup 55 (55% fructose/45% glucose for a final concentration of 42 g/L) in drinking water (Mells et al J Nutr Biochem 2015). 5-6 weeks old male C57Bl/6J mice were fed a control (CSAA) diet (n=4), CDFF diet (n=12), or CDFF diet supplemented with Elafibranor 3 mg/kg/day, CVC 10 mg/kg/day or combined drugs (Elafibranor 3 mg/kg/day combined to CVC 10 mg/kg/day) (n=8 per group) for 8 weeks.
The body weight, the food and water intake were monitored twice per week. On the last day of treatment, plasma samples were obtained from retro-orbital blood sampling and mice were sacrificed after a 6 h-fasting period. The liver was rapidly excised for biochemical and histological analyses. All animal procedures were performed according to standard protocols and in accordance with the standard recommendations for the proper care and use of laboratory animals.
A technician blinded to the source of each liver specimen performed histological examinations. Virtual slides were generated using the Pannoramic 250 scanner from 3D Histech. For each animal, a score summarizing the main histological lesions of NASH was attributed according to the NASH Clinical Research Network (Kleiner 2005, Brunt 1999). Briefly, steatosis, lobular inflammation and hepatocyte ballooning were scored. The NAFLD Activity Score (NAS score) was established for each individual as the unweighted sum of the steatosis (0-3), lobular inflammation (0-3) and the ballooning (0-2) injury grading.
Alanine aminotransferase (ALT) and aspartate aminotransferase (AST) concentrations were measured in plasma using the Randox kit for Daytona automate (Randox cat #AL 3801 and AS 3804, respectively). Plasma cytokeratin 18-M30, a surrogate marker of apoptosis, was measured using the Mouse Cytokeratin 18-M30 ELISA Kit (CUSABIO cat #CSB-E14265m), according to the manufacturer's recommendations. […]
Quantitative PCR was then carried out using the CFX96 Touch™ Real-Time PCR Detection System (Biorad). […]
Expression levels were normalized using the expression of GAPDH gene as a housekeeping gene of reference in samples. […] Expression levels were determined using the standard curve equation for both the housekeeping gene and the target gene (taking into account the specific PCR efficiency of each target gene).
To achieve this aim, NASH was induced by feeding C57Bl/6J mice with a choline-deficient L-amino-acid-defined-diet supplemented with 2% cholesterol and 30% milk fat, and high fructose corn syrup in drinking water (CDFF diet). […] NASH development was evaluated by histology, liver function tests, and biochemical and molecular analyses.

[2] = CVC 150 mg orally once daily, one year

## CCCCOCCOc1ccc(-c2ccc3c(c2)C=C(C(=O)Nc2ccc([S@@+]([O-])Cc4cncn4CCC)cc2)CCCN3CC(C)C)cc1.CS(=O)(=O)O [CVC mesylate, (S)-8-[4-(2-Butoxyethoxy)phenyl]-1-isobutyl-N-[4-[[(1-propyl-1H-imidazol-5-yl)methyl]sulfinyl]phenyl]-1,2,3,4-tetrahydro-1-benzazocine-5-carboxamide monomethanesulfonoate]
[1]; 99.5% ethanol
  solubility: sparingly soluble
[1]; acetonitrile, 1-octanol, tetrahydrofuran
  solubility: slightly soluble
[1]; aqueous solution at pH 3
  solubility: sparingly soluble
[1]; aqueous solution from pH 1 to 2
  solubility: freely soluble
[1]; aqueous solution from pH 4 to 13 and in water
  solubility: practically insoluble
[1]; ethyl acetate and diethylether
  solubility: practically insoluble
[1]; glacial acetic acid, methanol, benzyl alcohol, dimethylsulfoxide, N,N-dimethylformamide
  solubility: freely soluble
[1]; pyridine and acetic anhydride
  solubility: soluble

## CCCCOCCOc1ccc(-c2ccc3c(c2)/C=C(/C(=O)Nc2ccc([S@@+]([O-])Cc4cncn4CCC)cc2)CCCN3CC(C)C)cc1 [CVC, (S,E)-8-(4-(2-Butoxyethoxy)phenyl)-1-(2-methylpropyl)-N-(4-(((1-propyl-1H-imidazol-5-yl)methyl)sulfinyl)phenyl)-1,2,3,4-tetrahydrobenzo[b]azocine-5-carboxamide]
NASH with liver fibrosis; [2]
  fibrosis as compared to placebo: decrease of fibrosis in certain proportion of patients
  primary outcome (minimum 2-point improvement in NAS with at least 1-point reduction in lobular inflammation or hepatocellular ballooning): not met
NASH with liver fibrosis; recent phase 2B study
  efficacy on NASH-induced fibrosis: shown efficacy
TGFβ1-induced hHSC; 5 μM alone (FIG. 2C)
  antifibrotic activity (α-SMA): does not show any antifibrotic activity
TGFβ1-induced hHSC; hHSC, TGFβ1 1 ng/ml, 48 h, all doses (FIG. 1B, 1C)
  antifibrotic effect as single agent (α-SMA): did not show a significant effect
CDFF-fed mice; 8 weeks (FIG. 4A)
  NAS score (disease activity): no effect
CDFF-fed mice; 8 weeks (FIG. 4B)
  plasma CK18 concentration: no effect
CDFF-fed mice; 8 weeks (FIG. 4C)
  plasma AST concentration: no effect
CDFF-fed mice; 8 weeks, qPCR (FIG. 5)
  hepatic expression of genes related to inflammation, tissue remodeling and fibrogenesis: no effect
